The target of one assay is T1, hSLIT2-His (Homo sapiens, UniProt O94813).
T1 sequence (O94813 31-1529): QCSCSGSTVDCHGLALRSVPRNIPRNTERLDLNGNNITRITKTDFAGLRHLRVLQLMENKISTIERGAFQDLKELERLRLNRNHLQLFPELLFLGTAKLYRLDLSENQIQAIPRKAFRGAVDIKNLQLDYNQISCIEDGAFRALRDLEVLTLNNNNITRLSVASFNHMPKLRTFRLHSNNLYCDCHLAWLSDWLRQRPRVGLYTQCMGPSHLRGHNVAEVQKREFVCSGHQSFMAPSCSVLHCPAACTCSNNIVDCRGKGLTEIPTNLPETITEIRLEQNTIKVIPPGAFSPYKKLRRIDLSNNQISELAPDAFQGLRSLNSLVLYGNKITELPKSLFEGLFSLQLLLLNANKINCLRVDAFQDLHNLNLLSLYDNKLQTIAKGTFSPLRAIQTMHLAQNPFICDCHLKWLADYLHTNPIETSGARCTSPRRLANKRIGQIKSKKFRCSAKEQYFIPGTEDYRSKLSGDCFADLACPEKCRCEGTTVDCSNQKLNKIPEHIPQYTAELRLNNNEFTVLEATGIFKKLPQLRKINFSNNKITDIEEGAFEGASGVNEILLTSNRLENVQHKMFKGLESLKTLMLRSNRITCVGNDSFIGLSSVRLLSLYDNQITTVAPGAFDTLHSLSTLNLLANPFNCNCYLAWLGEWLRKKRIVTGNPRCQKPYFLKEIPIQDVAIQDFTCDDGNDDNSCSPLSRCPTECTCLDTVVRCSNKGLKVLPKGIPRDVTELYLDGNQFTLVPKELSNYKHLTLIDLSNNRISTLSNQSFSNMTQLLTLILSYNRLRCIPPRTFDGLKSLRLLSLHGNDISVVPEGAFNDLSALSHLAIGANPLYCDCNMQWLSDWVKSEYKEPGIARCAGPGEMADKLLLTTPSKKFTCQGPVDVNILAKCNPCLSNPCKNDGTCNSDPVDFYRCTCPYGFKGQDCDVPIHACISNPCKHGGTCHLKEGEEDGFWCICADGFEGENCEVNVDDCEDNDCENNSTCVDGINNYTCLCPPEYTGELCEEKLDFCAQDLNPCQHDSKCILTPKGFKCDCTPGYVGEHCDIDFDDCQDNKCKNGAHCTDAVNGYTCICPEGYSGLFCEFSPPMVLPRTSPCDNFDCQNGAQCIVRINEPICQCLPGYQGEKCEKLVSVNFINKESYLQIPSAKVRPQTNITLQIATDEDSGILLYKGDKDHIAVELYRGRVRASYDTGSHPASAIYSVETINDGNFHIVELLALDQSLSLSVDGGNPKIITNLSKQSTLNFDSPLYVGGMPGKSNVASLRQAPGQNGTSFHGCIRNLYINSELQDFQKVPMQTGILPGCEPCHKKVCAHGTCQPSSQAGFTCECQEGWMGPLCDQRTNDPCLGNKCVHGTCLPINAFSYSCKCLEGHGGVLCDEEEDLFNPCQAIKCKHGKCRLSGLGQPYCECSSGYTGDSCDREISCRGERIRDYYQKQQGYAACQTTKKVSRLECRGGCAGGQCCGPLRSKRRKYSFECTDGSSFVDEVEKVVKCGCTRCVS
Description: TRIC/MST dose response. Type of assay: binding.

The next assay addresses T2, SLIT2/ROBO1 (Homo sapiens, UniProt O94813).
T2 sequence (O94813 31-1529): T1 sequence (O94813 31-1529)
T2 sequence (Q9Y6N7 26-897 partner limits assumed): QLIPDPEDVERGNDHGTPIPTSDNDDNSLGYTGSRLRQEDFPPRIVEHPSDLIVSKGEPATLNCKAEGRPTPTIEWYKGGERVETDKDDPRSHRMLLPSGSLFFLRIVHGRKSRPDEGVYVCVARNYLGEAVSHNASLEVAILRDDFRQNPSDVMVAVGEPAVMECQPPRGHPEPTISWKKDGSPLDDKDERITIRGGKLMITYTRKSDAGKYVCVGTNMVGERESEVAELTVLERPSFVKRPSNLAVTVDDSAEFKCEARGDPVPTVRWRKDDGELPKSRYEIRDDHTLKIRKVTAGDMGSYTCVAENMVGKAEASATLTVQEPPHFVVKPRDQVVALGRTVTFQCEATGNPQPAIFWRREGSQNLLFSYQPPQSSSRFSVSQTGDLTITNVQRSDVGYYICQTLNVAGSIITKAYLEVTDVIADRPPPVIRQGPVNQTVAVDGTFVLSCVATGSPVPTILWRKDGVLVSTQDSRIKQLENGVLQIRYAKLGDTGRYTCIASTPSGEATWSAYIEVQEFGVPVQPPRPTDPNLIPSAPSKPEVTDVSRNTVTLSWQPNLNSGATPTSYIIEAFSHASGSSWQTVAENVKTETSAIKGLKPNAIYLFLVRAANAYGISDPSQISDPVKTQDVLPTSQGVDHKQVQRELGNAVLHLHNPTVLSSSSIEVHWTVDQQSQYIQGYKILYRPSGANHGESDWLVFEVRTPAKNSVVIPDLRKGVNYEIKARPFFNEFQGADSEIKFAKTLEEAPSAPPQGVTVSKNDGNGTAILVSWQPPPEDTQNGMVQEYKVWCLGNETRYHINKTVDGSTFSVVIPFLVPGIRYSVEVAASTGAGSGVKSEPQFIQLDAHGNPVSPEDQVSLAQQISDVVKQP
Description: TR-FRET SLIT2/ROBO1 interaction inhibition. Type of assay: binding.

From doi:10.1101/2025.07.08.663693v1 (biorxiv, 2025) come the findings set out here.

What is called Kd is a measure of binding affinity in units of concentration. Read a low Kd as higher affinity. What is called IC50 is the midpoint of a concentration-inhibition curve. The low end stands for greater potency, the high end for weaker potency.

At hSLIT2-His, `C=C(c1ccc(C(=O)O)cc1)c1cc2c(cc1C)C(C)(C)CCC2(C)C` [bexarotene] had a Kd of 2.62 µM. Moreover, the IC50 on SLIT2/ROBO1 is 22.8 ± 3.85 µM.
